# Laboratory results as given in patent US20240239752A1, “BICYCLIC HETEROAROMATIC INHIBITORS OF KLK5” (BioCryst Pharmaceuticals, Inc., priority 2021, published 2024).
# Target: T1, recombinant human KLK5 (Homo sapiens, UniProt Q9Y337)
# T1 construct: purchased Novoprotein or R&D Systems C415 or 1108-SE
# T1 sequence (Q9Y337 23-293): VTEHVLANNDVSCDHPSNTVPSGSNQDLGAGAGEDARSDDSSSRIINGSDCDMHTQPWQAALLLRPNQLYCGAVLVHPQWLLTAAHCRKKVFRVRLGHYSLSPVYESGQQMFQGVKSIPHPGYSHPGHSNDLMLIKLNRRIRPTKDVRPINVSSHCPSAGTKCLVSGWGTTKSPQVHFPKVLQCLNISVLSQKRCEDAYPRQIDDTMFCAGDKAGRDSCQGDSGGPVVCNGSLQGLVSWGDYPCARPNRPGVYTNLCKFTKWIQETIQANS
# Test: Kallikrein (KLK) 5 enzymatic assay (Boc-VPR-AMC fluorogenic substrate)
# Assay type: biochemical
# Details: recombinant human KLK5 0.1 μg/well, Boc-VPR-AMC 100 μM, pH 7.5, room temperature, 1% DMSO; tested a minimum of three times
# Source text: Kallikrein-5 (KLK5) is a member of the serine protease family of proteolytic enzymes, confirmed to have trypsin-like activity (Michael I P, et al. Biochemical and enzymatic characterization of human kallikrein 5 (hK5), a novel serine protease potentially involved in cancer progression (J. Biol. Chem. 2005 Apr. 15; 280 (15): 14628-35). Boc-VPR-AMC is a fluorogenic peptide substrate composed of the short peptide chain, Valine-Proline-Arginine (VPR) and the fluorophore, 7-amino-4-methylcoumarin (AMC). KLK5 is able to cleave the fluorogenic peptide substrate Boc-VPR-AMC, releasing the AMC fluorophore, which causes a fluorescent emission in proportion with the enzymatic activity of KLK5. The KLK5 enzymatic activity is monitored by measuring fluorescent emission at wavelengths of 380 nm (excitation) and 460 nm (emission).
# The IC50 value of compounds against KLK5 (i.e., the concentration of the compound that inhibits 50% of the enzymatic activity) was calculated according to the procedure reported by R&D systems (Recombinant human KLK5, Catalog Number: 1108-SE), with the exception the pH of the assay was modified from 8.0 to 7.5. Specifically, recombinant human KLK5 (Novoprotein Catalog #C415 or R&D systems Catalog #1108-SE) and fluorogenic peptide Boc-VPR-AMC substrate (R&D Catalog #ES011) were each separately diluted in assay buffer (0.1 M NaH2PO4 buffer, pH 7.5). The compounds of the disclosure were dissolved in DMSO at a concentration of 10 mM. A portion of this stock solution was added to the recombinant human KLK5 solution to provide a desired concentration of the compounds and the mixture was incubated at room temperature. The reaction was initiated by the addition of the fluorogenic peptide substrate at room temperature. The final concentration of recombinant human KLK5 was 0.1 μg/well and the final concentration of the fluorogenic substrate was 100 μM (final volume of 100 μL, 1% DMSO). The assays were performed in 96 well F16 Black Maxisorp Plate (Nunc Catalog #475515). Controls included assay buffer alone and enzyme solutions to which DMSO was added. The reaction rates were measured spectrophotometrically by excitation at 380 nm and emission at 460 nm on a Biotek Synergy H1 plate reader.
# The reaction rate for enzyme alone was compared to the reaction rate of enzyme in the presence of compound and the percent inhibition was calculated as shown below:
# Percent Inhibition=[Rate with inhibitor/Rate without inhibitor)]×100
# An IC50 indicates a compound concentration that inhibits 50% of the enzymatic activity. Compounds were tested a minimum of three times.
row,IC50 [nM],Structure (SMILES)
1,< 1000,"CCC(=O)N1CCC2(CC1)CC(Oc1ccccc1CC(=O)O)c1cc(-c3cccc4c(N)nccc34)ccc12 (single isomer, unassigned; (+)) [Compound 385d, (+)-2-(2-((5-(1-aminoisoquinolin-5-yl)-1′-propionyl-2,3-dihydrospiro[indene-1,4′-piperidin]-3-yl)oxy)phenyl)acetic acid]"
2,< 1000,"CCC(=O)N1CCC2(CC1)CC(Oc1ccccc1CC(=O)O)c1cc(-c3cccc4c(N)nccc34)ccc12 (single isomer, unassigned; (-)) [Compound 385e, (−)-2-(2-((5-(1-aminoisoquinolin-5-yl)-1′-propionyl-2,3-dihydrospiro[indene-1,4′-piperidin]-3-yl)oxy)phenyl)acetic acid]"
3,1000 to 10000,"CC(C)n1nc(C(=O)Nc2ccccc2C(=O)O)c2cc(-c3cccc(C(=N)N)c3)ccc21 [Compound 1i, 2-(5-(3-carbamimidoylphenyl)-1-isopropyl-1H-indazole-3-carboxamido)benzoic acid]"
4,< 1000,"CC(C)n1nc(COc2ccccc2CC(=O)O)c2cc(-c3cccc(C(=N)N)c3)ccc21 [Compound 6b, 2-(2-((5-(3-carbamimidoylphenyl)-1-isopropyl-1H-indazol-3-yl)methoxy)phenyl)acetic acid]"
5,< 1000,"Nc1nccc2c(-c3ccc4nn(C5CCOC5)c(COc5ccccc5CC(=O)O)c4c3)cccc12 (stereo not drawn) [Compound 8g, 2-(2-((5-(1-aminoisoquinolin-5-yl)-2-(tetrahydrofuran-3-yl)-2H-indazol-3-yl)methoxy)phenyl)acetic acid]"
6,< 1000,"CC1CC(n2nc(COc3ccccc3CC(=O)O)c3cc(-c4ccc5ccnc(N)c5c4)ccc32)C1 (stereo not drawn) [Compound 9j, 2-(2-((5-(1-aminoisoquinolin-7-yl)-1-(3-methylcyclobutyl)-1H-indazol-3-yl)methoxy)phenyl)acetic acid]"
7,1000 to 10000,"COc1ccc(CC(=O)O)c(OCc2c3cc(-c4ccc5ccnc(N)c5c4)ccc3nn2C2CCOC2)c1 (stereo not drawn) [Compound 13c, 2-(2-((5-(1-aminoisoquinolin-7-yl)-2-(tetrahydrofuran-3-yl)-2H-indazol-3-yl)methoxy)-4-methoxyphenyl)acetic acid]"
8,> 10000,"Cc1ccc(CC(=O)O)c(OCc2c3cc(-c4ccc5ccnc(N)c5c4)ccc3nn2C2CCCCC2)c1 [Compound 15d, 2-(2-((5-(1-aminoisoquinolin-7-yl)-2-cyclohexyl-2H-indazol-3-yl)methoxy)-4-methylphenyl)acetic acid]"
9,1000 to 10000,"COc1ccc(CC(=O)O)c(OCc2c3cc(-c4ccc5ccnc(N)c5c4)ccc3nn2C2CCCCC2)c1 [Compound 16c, 2-(2-((5-(1-aminoisoquinolin-7-yl)-2-cyclohexyl-2H-indazol-3-yl)methoxy)-4-methoxyphenyl)acetic acid]"
10,1000 to 10000,"COc1ccc(CC(=O)O)c(OCc2c3cc(-c4ccc5ccnc(N)c5c4)ccc3nn2C2CCC2)c1 [Compound 20b, 2-(2-((5-(1-aminoisoquinolin-7-yl)-2-cyclobutyl-2H-indazol-3-yl)methoxy)-4-methoxyphenyl)acetic acid]"
11,1000 to 10000,"COc1c(-c2ccc3nn(C4CCC4)c(COc4ccccc4CC(=O)O)c3c2)ccnc1C(=N)NO [Compound 23g, 2-(2-((2-cyclobutyl-5-(2-(N-hydroxycarbamimidoyl)-3-methoxypyridin-4-yl)-2H-indazol-3-yl)methoxy)phenyl)acetic acid]"
12,< 1000,"COc1c(-c2ccc3nn(C4CCC4)c(COc4ccccc4CC(=O)O)c3c2)ccnc1C(=N)N [Compound 24b, 2-(2-((5-(2-carbamimidoyl-3-methoxypyridin-4-yl)-2-cyclobutyl-2H-indazol-3-yl)methoxy)phenyl)acetic acid]"

# Further lines, the molecule ahead of its results:
row,Structure (SMILES),IC50 [nM]
1,"COc1ccc(CC(=O)O)c(OCc2c(C)oc3ccc(-c4cccc(C(=N)N)c4)cc23)c1 [7 g, 2-(2-((5-(3-carbamimidoylphenyl)-2-methylbenzofuran-3-yl)methoxy)-4-methoxyphenyl)acetic acid]",< 1000
2,"CC(C)n1nc(COc2ccccc2CC(=O)O)c2cc(-c3ccc(C(=N)N)cc3)ccc21 [Compound 2g, 2-(2-((5-(4-carbamimidoylphenyl)-1-isopropyl-1H-indazol-3-yl)methoxy)phenyl)acetic acid]",> 10000
3,"CC(C)n1nc(C(=O)Nc2ccccc2C(=O)O)c2cc(-c3ccc(C(=N)N)cc3)ccc21 [Compound 3b, 2-(5-(4-carbamimidoylphenyl)-1-isopropyl-1H-indazole-3-carboxamido)benzoic acid]",> 10000
4,"Cn1nc(COc2ccccc2CC(=O)O)c2cc(-c3cccc(C(=N)N)c3)ccc21 [Compound 4e, 2-(2-((5-(3-carbamimidoylphenyl)-1-methyl-1H-indazol-3-yl)methoxy)phenyl)acetic acid]",< 1000
5,"COc1ccc(CC(=O)O)c(OCc2nn(C(C)C)c3ccc(-c4cccc(C(=N)N)c4)cc23)c1 [Compound 5e, 2-(2-((5-(3-carbamimidoylphenyl)-1-isopropyl-1H-indazol-3-yl)methoxy)-4-methoxyphenyl)acetic acid]",< 1000
6,"CC(C)(C)OC(=O)N1CC(n2nc(COc3ccccc3CC(=O)O)c3cc(-c4ccc5ccnc(N)c5c4)ccc32)C1 [Compound 10e, 2-(2-((5-(1-aminoisoquinolin-7-yl)-1-(1-(tert-butoxycarbonyl)azetidin-3-yl)-1H-indazol-3-yl)methoxy)phenyl)acetic acid]",< 1000
7,"Nc1nccc2ccc(-c3ccc4c(c3)c(COc3ccccc3CC(=O)O)nn4C3CC(F)(F)C3)cc12 [Compound 11e, 2-(2-((5-(1-aminoisoquinolin-7-yl)-1-(3,3-difluorocyclobutyl)-1H-indazol-3-yl)methoxy)phenyl)acetic acid]",< 1000
8,"Nc1nccc2ccc(-c3ccc4nc(C5CC5)cc(COc5ccccc5CC(=O)O)c4c3)cc12 [Compound 12e, 2-(2-((6-(1-aminoisoquinolin-7-yl)-2-cyclopropylquinolin-4-yl)methoxy)phenyl)acetic acid]",> 10000
9,"COC(=O)Cc1ccc(OC)cc1OCc1c2cc(-c3ccc4ccnc(N)c4c3)ccc2nn1C1CCOC1 (stereo not drawn) [Compound 13d, methyl 2-(2-((5-(1-aminoisoquinolin-7-yl)-2-(tetrahydrofuran-3-yl)-2H-indazol-3-yl)methoxy)-4-methoxyphenyl)acetate]",> 10000
10,"Nc1nccc2c(-c3ccc4nn(C5CCCCC5)c(COc5ccccc5CC(=O)O)c4c3)cccc12 [Compound 14f, 2-(2-((5-(1-aminoisoquinolin-5-yl)-2-cyclohexyl-2H-indazol-3-yl)methoxy)phenyl)acetic acid]",1000 to 10000
11,"Cc1ccc(CC(=O)O)c(OCc2c3cc(-c4ccc5ccnc(N)c5c4)ccc3nn2C2CCC2)c1 [Compound 17e, 2-(2-((5-(1-aminoisoquinolin-7-yl)-2-cyclobutyl-2H-indazol-3-yl)methoxy)-4-methylphenyl)acetic acid]",> 10000
12,"Cc1ccc(CC(=O)O)c(OCc2c3cc(-c4cccc5c(N)nccc45)ccc3nn2C2CCC2)c1 [Compound 18c, 2-(2-((5-(1-aminoisoquinolin-5-yl)-2-cyclobutyl-2H-indazol-3-yl)methoxy)-4-methylphenyl)acetic acid]",1000 to 10000
13,"COc1ccc(CC(=O)O)c(OCc2c3cc(-c4cccc5c(N)nccc45)ccc3nn2C2CCC2)c1 [Compound 19c, 2-(2-((5-(1-aminoisoquinolin-5-yl)-2-cyclobutyl-2H-indazol-3-yl)methoxy)-4-methoxyphenyl)acetic acid]",1000 to 10000
14,"Nc1nccc2c(-c3ccc4nn(C5CCCC5)c(COc5ccccc5CC(=O)O)c4c3)cccc12 [Compound 21e, 2-(2-((5-(1-aminoisoquinolin-5-yl)-2-cyclopentyl-2H-indazol-3-yl)methoxy)phenyl)acetic acid]",< 1000
15,"N=C(N)c1cccc(-c2ccc3nn(C4CCCC4)c(COc4ccccc4CC(=O)O)c3c2)c1 [Compound 22c, 2-(2-((5-(3-carbamimidoylphenyl)-2-cyclopentyl-2H-indazol-3-yl)methoxy)phenyl)acetic acid]",< 1000
